From paper PMC8286840, “Identifying SARS-CoV-2 antiviral compounds by screening for small molecule inhibitors of Nsp3 papain-like protease” (Biochemical Journal, 2021)
Where a name gives a salt, the structure may show the parent alone. Read-outs that look alike come from different tables or passages of the source.

Key:
[1] = biological target: T1, SARS-CoV-2 PLpro (nsp3 1564–1878) (Severe acute respiratory syndrome coronavirus 2, UniProt P0DTD1); assay: biochemical; set-up: FRET-quenched peptide (Pro3) cleavage by PLpro, 10 min pre-incubation, slope over 20 min, normalised to no-compound control; settings: high concentration screen, read-out: % of control remaining
[2] = biological target: T1, SARS-CoV-2 PLpro (nsp3 1564–1878); assay: biochemical; set-up: FRET-quenched peptide (Pro3) cleavage by PLpro, 10 min pre-incubation, slope over 20 min, normalised to no-compound control; settings: low concentration screen, read-out: % of control remaining

`O=C(Nc1ccc(Cl)cc1)Nc1cccc(-c2cccc(N3CCCC3)n2)c1` [PSNCBAM-1] gave a remaining activity at 3.75 µM ([1]; Well no.=5820) of 97% and a remaining activity at 1.25 µM ([2]; Well no.=5820) of 105%.

`S=C=Nc1cccc(NC(=S)NCCCCNC(=S)Nc2cccc(N=C=S)c2)c1` [MRS 2578] showed a remaining activity at 3.75 µM ([1]; Well no.=7275) of 95.2%, a remaining activity at 1.25 µM ([2]; Well no.=4797) of 93.1% and a remaining activity at 1.25 µM ([2]; Well no.=7275) of 95%.

For `CCN1CCC[C@H]1CNC(=O)c1cc(S(N)(=O)=O)ccc1OC` [Levosulpiride], the remaining activity at 3.75 µM ([1]; Well no.=6851) was 88.1% and the remaining activity at 1.25 µM ([2]; Well no.=6851) was 98%.

Work on `OCCN1CCN(CCCN2c3ccccc3C=Cc3ccccc32)CC1` [Opipramol dihydrochloride] yielded a remaining activity at 3.75 µM ([1]; Well no.=5510) of 101% and a remaining activity at 1.25 µM ([2]; Well no.=5510) of 97.5%.

For `CC(C)NCC(O)c1ccc(NS(C)(=O)=O)cc1` (racemic), the remaining activity at 3.75 µM ([1]; Well no.=1212) was 103% and the remaining activity at 1.25 µM ([2]; Well no.=1212) was 105%.

`COc1cc2nccc(Oc3ccc(NC(=O)NC4CC4)c(Cl)c3)c2cc1C(N)=O` [E7080] showed a remaining activity at 3.75 µM ([1]; Well no.=2981) of 98.1% and a remaining activity at 1.25 µM ([2]; Well no.=2981) of 98%.

`O=c1onc2n1-c1cc(Br)ccc1OC2` [NS 2028] showed a remaining activity at 3.75 µM ([1]; Well no.=990) of 99.6% and a remaining activity at 1.25 µM ([2]; Well no.=990) of 99.8%.

`O=P(O)(O)C(Cl)(Cl)P(=O)(O)O` [Clodronic acid] showed a remaining activity at 3.75 µM ([1]; Well no.=737) of 96.9%, a remaining activity at 3.75 µM ([1]; Well no.=1862) of 90.7% and a remaining activity at 1.25 µM ([2]; Well no.=737) of 95.6%. For the same molecule, the remaining activity at 1.25 µM ([2]; Well no.=1862) was 92.6%.

`Cc1c(F)cccc1NC(=O)Nc1ccc(Cl)c(S(=O)(=O)[C@H]2CCCNC2)c1O` [Danirixin] showed a remaining activity at 3.75 µM ([1]; Well no.=8173) of 103% and a remaining activity at 1.25 µM ([2]; Well no.=8173) of 111%.

In the case of `O=C(N[C@@H](Cc1ccccc1)C(=O)CCl)OCc1ccccc1` [Z-L-Phe chloromethyl ketone], the remaining activity at 3.75 µM ([1]; Well no.=238) is reported as 101% and the remaining activity at 1.25 µM ([2]; Well no.=238) is reported as 100%.

Molecule `COc1ccc2c(c1OC)C(=O)O[C@@H]2[C@H]1c2c(cc3c(c2OC)OCO3)CCN1C` [Noscapine] has a remaining activity at 3.75 µM ([1]; Well no.=6613) of 106% and a remaining activity at 1.25 µM ([2]; Well no.=6613) of 106%.

`CCCN1C[C@H](CSC)C[C@@H]2c3cccc4[nH]cc(c34)C[C@H]21` [Pergolide methanesulfonate] was tested, and the remaining activity at 3.75 µM ([1]; Well no.=1257) was 111% and the remaining activity at 1.25 µM ([2]; Well no.=1257) was 112%.

With `COc1cccc(-c2ccc(NC(=O)C3=C(C(=O)O)CCC3)c(F)c2)c1` [Vidofludimus] the remaining activity at 3.75 µM ([1]; Well no.=8524) was 96.6% and the remaining activity at 1.25 µM ([2]; Well no.=8524) was 99.5%.

Molecule `C[C@H](CSC(=O)c1ccccc1)C(=O)N1C[C@@H](Sc2ccccc2)C[C@H]1C(=O)O` [Zofenopril calcium] has a remaining activity at 3.75 µM ([1]; Well no.=5564) of 103% and a remaining activity at 1.25 µM ([2]; Well no.=5564) of 102%.

`N[C@@H](Cc1ccc(O)c(I)c1)C(=O)O` [3-Iodo-L-tyrosine] gave a remaining activity at 3.75 µM ([1]; Well no.=919) of 104% and a remaining activity at 1.25 µM ([2]; Well no.=919) of 103%.

For `CC(O)C(O)C1CNc2nc(N)[nH]c(=O)c2N1` [(6R)-5,6,7,8-Tetrahydro-L-biopterin hydrochloride], the remaining activity at 3.75 µM ([1]; Well no.=1383) was 102% and the remaining activity at 1.25 µM ([2]; Well no.=1383) was 101%.

Molecule `C[C@@H](NCCc1ccc(O)cc1)[C@@H](O)c1ccc(O)cc1` (racemic) [Ritodrine (hydrochloride)] has a remaining activity at 3.75 µM ([1]; Well no.=6427) of 91.3% and a remaining activity at 1.25 µM ([2]; Well no.=6427) of 100%.

`CC1(C)CCC[C@](C)([C@H]2CC[C@]3(C)[C@@H]2[C@H](O)C[C@@H]2[C@@]4(C)CC[C@H](O)C(C)(C)[C@@H]4[C@@H](O)C[C@]23C)O1` [Panaxatriol] gave a remaining activity at 3.75 µM ([1]; Well no.=3699) of 101% and a remaining activity at 1.25 µM ([2]; Well no.=3699) of 94.8%.

`CN1c2ccccc2C(=O)N2CCc3c([nH]c4ccccc34)C21` (stereo in doubt) [Evodiamine] was tested, and the remaining activity at 3.75 µM ([1]; Well no.=3809) was 98.5% and the remaining activity at 1.25 µM ([2]; Well no.=3809) was 95.1%.

`CC1(C)CC(=O)c2c(C(F)(F)F)nn(-c3ccc(C(N)=O)c(N[C@H]4CC[C@H](O)CC4)c3)c2C1` [SNX-2112] showed a remaining activity at 3.75 µM ([1]; Well no.=4635) of 95.7% and a remaining activity at 1.25 µM ([2]; Well no.=4635) of 99.3%.

`CN1C(=O)N[C@@H](Cc2c[nH]c3c(Cl)cccc23)C1=O` [Necrostatin 2 (S enantiomer)] showed a remaining activity at 3.75 µM ([1]; Well no.=7166) of 94.3% and a remaining activity at 1.25 µM ([2]; Well no.=7166) of 97.6%.

`C/C=C(/C)C(=O)O[C@H]1CC[C@@]2(C)[C@@H]3CC[C@H]4[C@]5(O)C[C@H](O)[C@@]6(O)[C@@H](CN7C[C@@H](C)CC[C@H]7[C@@]6(C)O)[C@]5(O)C[C@@]42O[C@]13O` [Cevadine] gave a remaining activity at 3.75 µM ([1]; Well no.=3139) of 102% and a remaining activity at 1.25 µM ([2]; Well no.=3139) of 103%.
